Assay results: paper PMC12563431, “The Esc(1-21)-1c Antimicrobial Peptide Inhibits a Specific Transcriptional Activator of the MexAB–OprM Efflux Pump in P. aeruginosa” (International Journal of Molecular Sciences, 2025)
Where no end group is shown, it is not given here. [ ]: non-standard residue; d: D form.

T1: Q9I5H3 (probable two-component response regulator, QseB homolog) (Pseudomonas aeruginosa, UniProt Q9I5H3 1-223)
T1 sequence: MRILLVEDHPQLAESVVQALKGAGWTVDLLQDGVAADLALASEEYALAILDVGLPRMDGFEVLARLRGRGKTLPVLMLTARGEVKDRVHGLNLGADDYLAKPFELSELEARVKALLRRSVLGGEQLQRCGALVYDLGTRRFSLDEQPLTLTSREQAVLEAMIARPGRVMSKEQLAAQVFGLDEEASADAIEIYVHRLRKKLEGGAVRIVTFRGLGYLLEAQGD

B1: MexAB-OprM (MexA) promoter target duplex (dsDNA)
DNA 1: CGAGTAAACCTAATGTAAATGTGGTTGATC
DNA 2: GATCAACCACATTTACATTAGGTTTACTCG
B2: Esc(1-21)-1c (peptide)
peptide: GIFSKLAGKKIKN[dL]LI[dS]GLKG-NH2
notes: also called Esc(1-21)-1c peptide; AMP
B3: His6-Q9I5H3 (natural protein)
chain: T1 sequence
notes: also called recombinant Q9I5H3 protein; PA0756; source: E. coli BL21 (pET28a), purified (His-Trap FF IMAC; gel filtration on Superdex 75)

What was measured:
Q9I5H3–DNA complex = experiment: EMSA competition assay, Q9I5H3 binding to MexAB–OprM promoter DNA duplex; assay type: biochemical, P. aeruginosa; settings: 30 μM Q9I5H3 pre-incubated with peptide (50 to 250 μM) 10 min at 25 °C, then 0.05 µM target DNA duplex for 20 min; 1.5% agarose gel, GelRed
Procedure: The putative effect of the Esc(1-21)-1c peptide on the Q9I5H3–DNA interaction was investigated by a competition assay in which the recombinant Q9I5H3 protein was pre-incubated with increasing concentrations of the peptide before adding the DNA probe. The protein–DNA complexes in the presence of different concentrations of Esc(1-21)-1c were again examined by EMSA.
The interaction of Q9I5H3 protein with DNA was investigated by EMSA experiments using the target DNA duplex as well as a control duplex-forming sequence generally used as a model of standard B-DNA duplex, the so-called Dickerson dodecamer (Supplementary Table S1). Sense and antisense oligonucleotides were annealed by incubation at 95 °C for 5 min and then gradual cooling to room temperature. Different concentrations of proteins were incubated with the DNA duplexes (0.05 µM) for 30 min at 25 °C in 20 µL of 25 mM HEPES pH 7.6, containing 50 mM KCl, 12.5 mM MgCl2, 1 mM DTT, 20% glycerol, 0.1% Triton.
For the assays, 30 μM of protein was pre-incubated with increasing concentrations of Esc(1-21)-1c for 10 min at 25 °C. Following this pre-incubation, the DNA duplex was added, and the mixture was incubated for additional 20 minutes under standard EMSA conditions.
All samples were separated on 1.5% agarose gel in Tris-borate-EDTA (TBE) running buffer at room temperature, using GelRed as dye. […]

P. aeruginosa biofilm = settings: levels below the MIC; cited from earlier work
Excerpt: (§1) In the past years, we characterized the biological properties of a derivative of the frog-skin AMP esculentin-1a, namely Esc(1-21)-1c of sequence GIFSKLAGKKIKN^dLLI^dSGLKG-NH2 containing two D-amino acids, i.e., Leu14 and Ser17. […] Furthermore, very recent studies have provided new insights into the global impact of Esc (1-21)-1c on P. ...

P. aeruginosa = settings: levels below the MIC; cited from earlier work
Excerpt: as §1

Q9I5H3 = experiment: Fluorescence binding titration of Q9I5H3 dimer with Esc(1-21)-1c; set-up: species or system P. aeruginosa; settings: intrinsic protein fluorescence, λexc 280 nm, emission 337 nm; 35 μM Q9I5H3 dimer, peptide 1.5 to 50 µM; 50 mM Tris-HCl pH 8.0, 150 mM NaCl, 20 °C; duplicate; one site specific binding fit; read-out: dissociation constant of the Esc(1-21)-1c–Q9I5H3 complex
Procedure: The interaction of the Esc(1-21)-1c peptide with Q9I5H3 was experimentally evaluated by fluorescence-based binding experiments. The dimeric form of the Q9I5H3 protein, purified by gel filtration, was titrated with increasing concentrations of Esc(1-21)-1c, and changes in the fluorescence emission of the protein were monitored (Figure 5).
Fluorescence experiments were performed on a Fluoromax-4 spectrofluorometer from Horiba Scientific, Piscataway, NJ, USA, using 1 cm optical path-length quartz cell under controlled temperature conditions (Peltier control system at 20 °C). Titrations were carried out in 50 mM Tris-HCl, pH 8.0 and 150 mM NaCl. Excitation wavelength used for the fluorescence titrations was 280 nm, and the spectra were recorded in the range 300–500 nm (slit 3 nm). Titrations were carried out at a fixed concentration (35 μM) of Q9I5H3 by adding increasing amounts of Esc(1-21)-1c peptide (from 1.5 to 50 µM), and the fluorescence emission was monitored at 337 nm. The experiments were performed in duplicate. The change in the fluorescence intensity was reported as a function of the peptide concentration and the data fitted with the “one site specific binding” equation of GraphPad Prism 9 (GraphPad Software LLC, La Jolla, CA, USA).

[1] = test system: MexA, MexB, and OprM proteins; settings: sub-MIC dosages; cited from earlier work
Excerpt: In the past years, we characterized the biological properties of a derivative of the frog-skin AMP esculentin-1a, namely Esc(1-21)-1c of sequence GIFSKLAGKKIKN^dLLI^dSGLKG-NH2 containing two D-amino acids, i.e., Leu14 and Ser17. […] Therefore, in-depth investigations are imperative to unravel the specific molecular mechanisms accounting for the downregulation of MexAB efflux pump by Esc(1-21)-1c. Here, we explored the intracellular mechanism of Esc(1-21)-1c at the molecular level by the identification of its putative interactors in P. aeruginosa. Functional proteomics approaches allowed us to ident ...

[2] = target: T1, Q9I5H3 (probable two-component response …); experiment: EMSA; protein 5-70 uM, DNA 0.05 uM; settings: protein: recombinant; tags: N-terminal His6 (pET28a); chain copies: 2; label: none (GelRed stain); blunt
His6-Q9I5H3 = target: B3; experiment: other fluorescence titration; intrinsic protein fluorescence (excitation 280 nm, emission 337 nm); 35 μM Q9I5H3 (dimeric form from gel filtration) fixed, Esc(1-21)-1c added from 1.5 to 50 µM; 50 mM Tris-HCl pH 8.0, 150 mM NaCl, 20 °C; duplicate; one site specific binding fit; settings: both partners purified
[3] = target: the molecule itself; experiment: SEC; Superdex 75 10/300 GL calibrated with standard proteins; 50 mM Tris-HCl pH 8.0, 150 mM NaCl; peaks at 7.8 mL and 11.5 mL; monomer and dimer

GIFSKLAGKKIKN^dLLI^dSGLKG-NH2 [Esc(1-21)-1c, derivative of the frog-skin AMP esculentin-1a containing two D-amino acids, Leu14 and Ser17]
peptide concentration at which the shifted Q9I5H3–DNA complex band completely disappeared (Q9I5H3–DNA complex): 200 µM
effect on P. aeruginosa biofilm formation (P. aeruginosa biofilm): capability to prevent P. aeruginosa biofilm formation
effect with the antibiotic Aztreonam in inhibiting growth and killing P. aeruginosa (P. aeruginosa): synergic effect
Kd (Q9I5H3): 10 ± 0.98 µM
effect on MexA, MexB, and OprM proteins [1]: significant downregulatory effect

B1
binding result [2]: binds

B2
Kd (His6-Q9I5H3): 10 ± 0.98 µM

B3
stoichiometry N [3]: 2
